Measurements: ChEMBL document CHEMBL4184118, “Carbazole-containing amides and ureas: Discovery of cryptochrome modulators as antihyperglycemic agents” (Bioorg Med Chem Lett, 2018)
Values after ≈ are worked out from the molar mass of the structure shown. Active and inactive are the calls of the source. The calls are words filed in the database; no cut-off is given here.

Tests used:
[1] = Half life in db/db mouse at 30 mg/kg, po qd; format: ADME, organism-based; conditions: in vivo
[2] = tested on: Mus musculus; experiment: In vivo induction of circadian clock modulation in db/db mouse at 30 mg/kg, po; format: functional, organism-based
[3] = Drug uptake in db/db mouse white adipose at 30 mg/kg, po measured at 1 to 24 hrs; format: ADME, organism-based, White adipose tissue; conditions: in vivo
[4] = tested on: Mus musculus; experiment: Antidiabetic activity in obese insulin-resistant db/db mouse assessed as reduction in blood glucose AUC at 100 mg/kg, po qd dosed for 7 days by oGTT relative to control; format: functional; parameters: scale not given: the % may be the effect or the level left
[5] = tested on: Salmonella typhimurium; experiment: Genotoxicity in Salmonella typhimurium by Ames test; format: toxicity, organism-based; conditions: salmonella enterica subsp. enterica serovar typhimurium
[6] = tested on: Mus musculus; experiment: Antidiabetic activity in obese insulin-resistant po dosed db/db mouse assessed as reduction in blood glucose AUC administered qd for 7 days by oGTT; format: functional, organism-based
[7] = Plasma concentration in db/db mouse at 30 mg/kg, po measured at 1 to 24 hrs; format: ADME, organism-based; conditions: in vivo
[8] = Drug uptake in db/db mouse skeletal muscle at 30 mg/kg, po measured at 1 to 24 hrs; format: ADME, organism-based, Skeletal muscle tissue; conditions: in vivo
[9] = MRT in db/db mouse at 30 mg/kg, po qd after 1 to 24 hrs; format: ADME, organism-based; conditions: in vivo
[10] = Drug uptake in db/db mouse liver at 30 mg/kg, po measured at 1 to 24 hrs; format: ADME, organism-based; conditions: in vivo
[11] = Drug uptake in db/db mouse brown adipose at 30 mg/kg, po measured at 1 to 24 hrs; format: ADME, organism-based, Brown adipose tissue; conditions: in vivo
[12] = tested on: Mus musculus; experiment: Unbound Cmax in db/db mouse at 30 mg/kg, po qd after 1 to 24 hrs; format: ADME, organism-based; conditions: in vivo
[13] = Kinetic solubility in simulated gastric fluid; format: physicochemical; conditions: read-out: Kinetic_solubility
[14] = tested on: Mus musculus; experiment: Hypoglycemic activity in obese insulin-resistant db/db mouse assessed as decrease in fasting blood glucose level at 100 mg/kg, po qd dosed for 7 days relative to control; format: functional; parameters: scale not given: the % may be the effect or the level left
[15] = Total Cmax in db/db mouse at 30 mg/kg, po qd after 1 to 24 hrs; format: ADME, organism-based; parameters: dose 30 mg/kg, route oral; conditions: in vivo
[16] = target: Voltage-gated inwardly rectifying potassium channel KCNH2 (Homo sapiens, UniProt Q12809); experiment: Inhibition of human ERG
Sequence of Voltage-gated inwardly rectifying potassium channel KCNH2 (Q12809 whole entry): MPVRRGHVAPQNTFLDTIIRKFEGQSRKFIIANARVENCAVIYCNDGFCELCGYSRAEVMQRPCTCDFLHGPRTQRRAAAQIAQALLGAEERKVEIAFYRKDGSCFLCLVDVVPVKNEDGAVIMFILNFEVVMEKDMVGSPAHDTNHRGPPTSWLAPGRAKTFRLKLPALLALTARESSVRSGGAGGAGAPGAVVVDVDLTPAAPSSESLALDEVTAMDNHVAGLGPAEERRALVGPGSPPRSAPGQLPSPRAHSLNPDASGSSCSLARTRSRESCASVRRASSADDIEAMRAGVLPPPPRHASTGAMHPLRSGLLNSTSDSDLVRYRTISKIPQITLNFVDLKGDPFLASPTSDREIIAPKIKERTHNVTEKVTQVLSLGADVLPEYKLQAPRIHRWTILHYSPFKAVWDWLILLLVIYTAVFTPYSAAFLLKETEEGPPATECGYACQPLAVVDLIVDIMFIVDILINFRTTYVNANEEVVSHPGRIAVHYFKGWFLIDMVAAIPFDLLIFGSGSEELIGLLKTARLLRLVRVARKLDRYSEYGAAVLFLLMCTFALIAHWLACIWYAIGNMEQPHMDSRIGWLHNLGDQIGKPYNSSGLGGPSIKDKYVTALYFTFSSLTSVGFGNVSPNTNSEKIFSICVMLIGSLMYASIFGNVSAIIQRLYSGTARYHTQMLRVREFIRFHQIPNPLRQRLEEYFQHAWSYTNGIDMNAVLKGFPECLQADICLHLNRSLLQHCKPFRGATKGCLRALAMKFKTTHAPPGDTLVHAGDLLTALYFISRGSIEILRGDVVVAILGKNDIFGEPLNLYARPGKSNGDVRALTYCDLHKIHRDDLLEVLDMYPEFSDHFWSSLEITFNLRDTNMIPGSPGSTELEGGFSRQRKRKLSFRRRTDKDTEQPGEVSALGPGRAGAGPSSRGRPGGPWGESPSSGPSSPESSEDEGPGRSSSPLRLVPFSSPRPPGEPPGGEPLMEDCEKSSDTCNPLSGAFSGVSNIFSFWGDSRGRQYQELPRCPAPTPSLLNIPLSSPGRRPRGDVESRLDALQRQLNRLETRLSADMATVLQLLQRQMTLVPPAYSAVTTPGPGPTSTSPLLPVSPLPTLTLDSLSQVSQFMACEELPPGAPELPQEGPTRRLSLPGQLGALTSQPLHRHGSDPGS

half-life [1]: 2.83 h
Drug uptake [3]: Active
Drug uptake [7]: Active
Drug uptake [8]: Active
MRT [9]: 6.76 h
Drug uptake [10]: Active
Drug uptake [11]: Active
fCmax [12]: 0.056 µM
solubility kinetic [13]: 142 µM (≈ 48.9 µg/mL)
Cmax [15]: 1090 nM
SMILES: O=C1NCCN1CC(O)Cn1c2ccc(F)cc2c2cc(F)ccc21 (stereo unspecified)
Activity [2]: Active
Activity [4]: 39%
Activity [5]: Non-Toxic
Activity [6]: Dose-dependent effect
Activity [14]: 14%
inhibition (INH) [16]: Not Active
